Test results from PMC5635026, “Homo-PROTACs: bivalent small-molecule dimerizers of the VHL E3 ubiquitin ligase to induce self-degradation” (Nature Communications, 2017).

Experiments:
V19CB = biological target: T1, V19CB (Homo sapiens, UniProt P40337); assay: Size-exclusion chromatography (SEC) of complex formation with V19CB; format: binding; conditions: compound 30 µM; for shift of VCB peak / ternary complex formation in SEC: VCB 50 µM
T1 construct: made in house
Procedure: Protein expression and purification. Human proteins VHL (UniProt accession number: P40337), ElonginC (Q15369), and ElonginB (Q15370) were used for all protein expression. The short-isoform-containing VCB complex (V19CB) was expressed, purified and stored as described previously. For expression of the long-isoform-containing VCB complex (V30CB), N-terminally His6-tagged VHL (1–213), ElonginC (17–112) and ElonginB (1–104) were co-expressed in Escherichia coli BL21(DE3) at 20 °C for 18 h using 0.5 mM isopropyl β-D-1-thiogalactopyranoside (IPTG). E. coli cells were resuspended in binding buffer (50 mM HEPES, pH 8.0, 500 mM NaCl, 10 mM imidazole and 5 mM β-mercaptoethanol), lysed using a pressure cell homogenizer (Stansted Fluid Power), and lysate clarified by centrifugation. The supernatant was loaded onto a HisTrap FF affinity column (GE Healthcare) equilibrated with binding buffer, and bound protein was eluted using an imidazole gradient. The His6 tag was removed using thrombin protease (Sigma), and the untagged complex was dialyzed into binding buffer. V30CB was then loaded onto the HisTrap FF column a second time, allowing impurities to bind as the complex eluted without binding. The flow-through was dialyzed using a low-salt buffer (20 mM HEPES, pH 8.0, 25 mM NaCl and 1 mM DTT) and then loaded onto a Resource Q anion exchange column (GE Healthcare); bound protein was eluted across a linear NaCl gradient. V30CB was then additionally purified by size-exclusion chromatography using a Superdex-75 16/600 column (GE Healthcare) equilibrated with 20 mM HEPES, pH 7.5, 100 mM sodium chloride and 1 mM TCEP. All chromatography purification steps were performed using Äkta FPLC purification systems (GE Healthcare).
Size-exclusion chromatography (SEC). SEC experiments were carried out in a ÄKTA pure system (GE Healthcare) at room temperature. The oligomeric state of the VCB complex in solution was analyzed by gel filtration in a buffer containing 20 mM Bis-Tris (pH 7), 150 mM NaCl and 1 mM 1,4-dithiothreitol (DTT) using a Superdex 200 Increase 10/300 GL column (GE Healthcare) calibrated with globular proteins of known molecular weight (GE Healthcare, 28-4038-41/42). […] Sample volume for each injection was 200 µl, and the flow rate was 0.5 ml min^−1. Peak elution was monitored using ultraviolet absorbance at 280 nm.

Hdy-HIF-1α = assay: Immunoblot of HIF-1α / hydroxylated HIF-1α levels in HeLa cells; format: cell-based, Human; conditions: HeLa; for stabilization of Hdy-HIF-1α: 100 µM; for protein levels of hydroxylated HIF-1α (Hdy-HIF-1α): 1 µM, 10 h
Procedure: Cell culture. Human cell lines HeLa, U2OS and HEK 293, purchased from ATCC, were propagated in DMEM supplemented with 10% fetal bovine serum (FBS), L- glutamine, 100 μg ml^−1 of penicillin/streptomycin at 37 °C and 5% CO2. Cells were maintained for no more than 30 passages. All cell lines were routinely tested for mycoplasma contamination using MycoAlert kit from Lonza. For compound treatment experiments, cells were transferred in six-well plates with either 3 × 10^5 or 5 × 10^5 cells per well in 2 ml of media. At 80% confluence, cells were treated with compounds at the desired concentration, reaching final DMSO concentration of 0.1% v/v. Cells were incubated at 37 °C and 5% CO2 for the desired time before harvesting.
Immunoblotting. Cells were lysed in lysis buffer (20 mM Tris pH 8, 150 mM NaCl, 1% Triton × 100) and a protease inhibitor cocktail (Roche) per 10 ml buffer. For protein extracts, the dishes were placed on ice. The media was aspirated and the tissue layer washed twice with ice-cold phosphate buffer saline (PBS). Lysis buffer (120 μl) was added and the cells detached from the surface with a cell scraper. After removal of the insoluble fraction by centrifugation, the protein concentration of the supernatant was determined by Pierce™ Coomassie (Bradford) Protein Assay Kit. Protein extracts were fractionated by SDS-PAGE on 4–12% Tris-Acetate NuPage® Novex® (Life Technologies) polyacrylamide gels and transferred to a nitrocellulose membrane using wet transfer. The membrane was then blocked with 5 % w/v Bovine serum albumin (BSA) in Tris-buffered saline (TBS) with 0.1% w/v Tween-20. For detecting proteins the following primary antibodies in the given concentrations were used: anti-β-Actin (Cell Signaling Technology, 4970S, 13E5) 1:2000, anti-VHL (Cell Signaling Technology, #68547) 1:1000, anti-Hif-1α (BD Biosciences, 610959, clone 54) 1:1,000, anti-hydroxy-HIF-1α (Hyp564) (Cell Signaling Techonology; #3434) 1:1,000, anti-PHD2 (Bethyl Laboratories; A300-322A) 1:1,000, anti-PHD3 (Bethyl Laboratories; A300-327A) 1:1000, anti-CRBN (Proteintech; 11435-1-AP) 1:1,000. Following incubation with a horseradish peroxidase-conjugated secondary antibody (Cell Signaling Technology), the signal was developed using enhanced chemiluminescence (ECL) Western Blotting Detection Kit (Amersham) on Amersham Hyperfilm ECL film (Amersham). Band quantification was performed using ImageJ software and reported as relative amount as ratio of the each protein band relative to the lane’s loading control. The values obtained were then normalized to 0.1% DMSO vehicle control. See Supplementary Fig. 12 for full-scanned images of western-blots shown in the main text figures.

T1 sequence (P40337 54-213): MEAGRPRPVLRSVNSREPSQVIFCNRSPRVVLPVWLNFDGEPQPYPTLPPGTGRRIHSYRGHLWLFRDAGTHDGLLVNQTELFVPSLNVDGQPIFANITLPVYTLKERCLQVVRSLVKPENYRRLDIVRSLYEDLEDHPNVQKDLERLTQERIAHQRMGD
T1 sequence (Q15369 17-112 partner limits assumed): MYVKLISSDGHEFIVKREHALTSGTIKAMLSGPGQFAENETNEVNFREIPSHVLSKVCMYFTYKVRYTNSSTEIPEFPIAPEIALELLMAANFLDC
T1 sequence (Q15370 1-104 partner limits assumed): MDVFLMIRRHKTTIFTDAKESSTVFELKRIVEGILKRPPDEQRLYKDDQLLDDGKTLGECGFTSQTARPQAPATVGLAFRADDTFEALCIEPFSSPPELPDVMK

Row | molecular weight of species in shifted SEC peak (V19CB; V19CB 50 µM) | SMILES | shift of VCB peak / ternary complex formation in SEC (V19CB) | stabilization of Hdy-HIF-1α (Hdy-HIF-1α) | protein levels of hydroxylated HIF-1α (Hdy-HIF-1α) (Hdy-HIF-1α)
1 | – | Cc1ncsc1-c1ccc(CNC(=O)[C@@H]2C[C@@H](O)CN2C(=O)[C@@H](NC(=O)COCCOCCOCCOCC(=O)N[C@H](C(=O)N2C[C@H](O)C[C@H]2C(=O)NCc2ccc(-c3scnc3C)cc2)C(C)(C)C)C(C)(C)C)cc1 [CM09, N ^1 ,N ^14-bis((S)-1-((2S,4R)-4-hydroxy-2-((4-(4-methylthiazol-5-yl)benzyl)carbamoyl)pyrrolidin-1-yl)-3,3-dimethyl-1-oxobutan-2-yl)-3,6,9,12-tetraoxatetradecanediamide] | formation of a ternary complex eluting at identical retention volume when compared to CM11 | comparable with the effect obtained with VH032 alone | –
2 | – | Cc1ncsc1-c1ccc(CNC(=O)[C@@H]2C[C@@H](O)CN2C(=O)[C@@H](NC(=O)COCCOCCOCCOCCOCC(=O)N[C@H](C(=O)N2C[C@H](O)C[C@H]2C(=O)NCc2ccc(-c3scnc3C)cc2)C(C)(C)C)C(C)(C)C)cc1 [CM10, N ^1 ,N ^17-bis((S)-1-((2S,4R)-4-hydroxy-2-((4-(4-methylthiazol-5-yl)benzyl)carbamoyl)pyrrolidin-1-yl)-3,3-dimethyl-1-oxobutan-2-yl)-3,6,9,12,15-pentaoxaheptadecanediamide] | formation of a ternary complex eluting at identical retention volume when compared to CM11 | comparable with the effect obtained with VH032 alone | detectable albeit low increase
3 | ~ 90 kDa | Cc1ncsc1-c1ccc(CNC(=O)[C@@H]2C[C@@H](O)CN2C(=O)[C@@H](NC(=O)COCCOCCOCCOCCOCCOCC(=O)N[C@H](C(=O)N2C[C@H](O)C[C@H]2C(=O)NCc2ccc(-c3scnc3C)cc2)C(C)(C)C)C(C)(C)C)cc1 [CM11, N ^1 ,N ^20-bis((S)-1-((2S,4R)-4-hydroxy-2-((4-(4-methylthiazol-5-yl)benzyl)carbamoyl)pyrrolidin-1-yl)-3,3-dimethyl-1-oxobutan-2-yl)-3,6,9,12,15,18-hexaoxaicosanediamide] | – | comparable with the effect obtained with VH032 alone | detectable albeit low increase
